Measured values as given in publication PMC2769143, “Variations in IC50 Values with Purity of Mushroom Tyrosinase” (International Journal of Molecular Sciences, 2009).
Where two headings read alike, the source gives them in different places.

Columns and labels:
[1] = molecular target: purified mushroom tyrosinase (MT) (Agaricus bisporus, UniProt C7FF04); assay: DOPA oxidation (dopachrome, 475 nm) assay with partially purified commercial MT; assay type: biochemical
Experimental: (§1) Each one mL assay contained a final concentration of 100 mM sodium phosphate (pH 6.5) and 2 mM DOPA. Crude, commercial or partially purified tyrosinase was added to initiate the reaction. […] Rates were determined from the linear portion of the absorbance vs. time curves. Crude enzyme was use at a concentration of 0.1 units (8.4 μg protein) per mL in the assay and assayed in the presence of 0.1% SDS. Commercial tyrosinase was used at a concentration of 0.038 units (3.3 μg protein) per mL in the assay. The purified enzyme was used at a concentration of 0.0067 units (0.58 μg protein) per mL in the assay.
(§2) Various amounts of inhibitors were added into assays to determine a range of inhibitors needed to encompass the IC50 value. Then assays were repeated within this range of inhibitor concentrations. Rates were determined as above. […] For the crude and commercial MT, experiments were repeated at least twice and the average IC50 value reported. Because of the limited amount of purified tyrosinase, not all experiments could be repeated twice. In experiments requiring DMSO to dissolve the inhibitor, control assays contained the assay mixture with DMSO but minus inhibitor. Final DMSO concentrations were 5% or less in the assays.

mushroom tyrosinase = conditions: cited from earlier work
[2] = molecular target: commercial mushroom tyrosinase (MT) (Agaricus bisporus, UniProt C7FF04); assay: DOPA oxidation (dopachrome, 475 nm) assay with commercial MT; assay type: biochemical; conditions: for IC50: read-out: IC50 Commer. MT
Experimental: Commercial mushroom tyrosinase was purchased from Worthington Biochemical Corp. (Lakewood, NJ, USA). Substrates and inhibitors were obtained from Sigma-Aldrich (St. Louis, MO, USA). Anisaldehyde was obtained form J.T. Baker Chemical Co. (Phillipsburg, NJ, USA). Dimethyl sulfoxide (DMSO) was reagent grade from Sigma-Aldrich (St. Louis, MO, USA).
(§3) White button mushrooms were purchased from local stores and blended in 100 mM sodium phosphate (pH 6.0) containing 1 mM EDTA, 1 mM PMSF, 5 mM ascorbic acid and 1 M sucrose. The homogenates were filtered and stored at −15 °C in small aliquots. Commercial mushroom tyrosinase. Mushroom tyrosinase was dissolved in the above buffer without ascorbic acid at 2 mg dry weight/mL and stored at 5 °C in small aliquots.
as §1, §2

[3] = molecular target: crude mushroom tyrosinase (MT) extract; assay: DOPA oxidation (dopachrome, 475 nm) assay with crude MT extract, with 0.1% SDS; assay type: biochemical, White button mushrooms
Experimental: as §3, §1, §2

[4] = test system: mushroom tyrosinase (crude, commercial and purified MT); assay: DOPA oxidation assay, statements pooled over crude, commercial and purified MT; assay type: biochemical
Experimental: Each one mL assay contained a final concentration of 100 mM sodium phosphate (pH 6.5) and 2 mM DOPA. Crude, commercial or partially purified tyrosinase was added to initiate the reaction. Oxidation of DOPA into dopachrome was monitored at 475 nm. One unit of activity was defined as 1 μmole dopachrome formed per min per ml enzyme using an extinction coefficient of 3600 M^−1 cm^−1. Rates were determined from the linear portion of the absorbance vs. time curves. Crude enzyme was use at a concentration of 0.1 units (8.4 μg protein) per mL in the assay and assayed in the presence of 0.1% SDS. Commercial tyrosinase was used at a concentration of 0.038 units (3.3 μg protein) per mL in the assay. The purified enzyme was used at a concentration of 0.0067 units (0.58 μg protein) per mL in the assay.
Various amounts of inhibitors were added into assays to determine a range of inhibitors needed to encompass the IC50 value. Then assays were repeated within this range of inhibitor concentrations. Rates were determined as above. […] The concentration of inhibitor needed to inhibit 50% of the tyrosinase activity was extrapolated from % activity vs. [inhibitor] curves. For some inhibitors, we also used Statistical Data Analysis Software (SDAS, version 2008A) using an exponential equation to obtain a best fit curve and then to calculate IC50 values. For the crude and commercial MT, experiments were repeated at least twice and the average IC50 value reported. Because of the limited amount of purified tyrosinase, not all experiments could be repeated twice. In experiments requiring DMSO to dissolve the inhibitor, control assays contained the assay mixture with DMSO but minus inhibitor. Final DMSO concentrations were 5% or less in the assays.

Sequence of purified mushroom tyrosinase (MT) (C7FF04 1-392): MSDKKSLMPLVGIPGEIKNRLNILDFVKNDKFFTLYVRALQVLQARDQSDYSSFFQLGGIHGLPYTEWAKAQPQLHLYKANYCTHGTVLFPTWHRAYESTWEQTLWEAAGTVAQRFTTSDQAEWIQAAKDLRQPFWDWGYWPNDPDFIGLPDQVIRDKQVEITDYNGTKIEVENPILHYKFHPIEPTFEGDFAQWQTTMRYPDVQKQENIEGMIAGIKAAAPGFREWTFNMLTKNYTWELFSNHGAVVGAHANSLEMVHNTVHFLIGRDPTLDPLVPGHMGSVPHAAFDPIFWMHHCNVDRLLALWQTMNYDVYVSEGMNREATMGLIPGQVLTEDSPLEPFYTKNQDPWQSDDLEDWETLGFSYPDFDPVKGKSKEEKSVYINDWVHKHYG
Sequence of purified mushroom tyrosinase (MT) (G1K3P4 entry or part of it, further chain): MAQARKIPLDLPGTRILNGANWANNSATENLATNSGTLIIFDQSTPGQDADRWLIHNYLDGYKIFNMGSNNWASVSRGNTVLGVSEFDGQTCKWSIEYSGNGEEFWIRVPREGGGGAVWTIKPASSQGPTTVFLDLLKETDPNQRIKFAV
Sequence of commercial mushroom tyrosinase (MT) (C7FF04 1-392): as the sequence (C7FF04 1-392) above
Sequence of commercial mushroom tyrosinase (MT) (G1K3P4 entry or part of it, further chain): as the sequence (G1K3P4 entry or part of it, further chain) above

4,4’-dihydroxy-biphenyl [biphenol]
Concentration beyond which purified MT activity increases ([1]; 2 mM DOPA): > 100 µM
IC50 ([1]; 2 mM DOPA, pH 6.5): 67 µM
IC50 (mushroom tyrosinase; tyrosine as substrate, read-out: Reported IC50 Values): 1.9 µM
IC50 ([2]; 2 mM DOPA, pH 6.5): 10 µM
IC50 ([3]; 2 mM DOPA, pH 6.5, 0.1% SDS): 50 µM

CCCCCCc1ccc(O)cc1O [4-HR, 4-hexylresorcinol]
IC50 (mushroom tyrosinase; read-out: Reported IC50 Values): 0.85 µM
IC50 ([3]; 2 mM DOPA, pH 6.5, 0.1% SDS): 5.8 µM

N.N.S.S.[S]=[Mo]=[S] [ATTM, ammonium tetrathiomolybdate]
IC50 (mushroom tyrosinase; read-out: Reported IC50 Values): 2 µM
IC50 ([2]; 2 mM DOPA, pH 6.5): 3.3 µM
IC50 ([3]; 2 mM DOPA, pH 6.5, 0.1% SDS): 3.4 µM

[Cl-].[Na+] [NaCl]
IC50 (mushroom tyrosinase; DOPA as substrate, read-out: Reported IC50 Values): 25000 µM
IC50 ([3]; 2 mM DOPA, pH 6.5, 0.1% SDS): 65000 µM

O=S(=O)([O-])[O-].[Zn+2] [ZnSO4]
Inhibition of purified MT ([1]; at 1 mM): none@1 mM
Inhibition of MT ([4]; concentrations up to 1 mM): no inhibition
IC50 (mushroom tyrosinase; assay coupling DOPA oxidation to thymol blue coloration, read-out: Reported IC50 Values): 50 µM
Inhibition of commercial MT ([2]; at 1 mM): none@1 mM
Inhibition of crude MT ([3]; at 1 mM): none@1 mM

COc1ccc(C=O)cc1 [anisaldehyde]
IC50 ([4]; 2 mM DOPA, read-out: IC50, range between crude, commercial and purified MT): 1000 to 1800 µM
IC50 (mushroom tyrosinase; read-out: Reported IC50 Values): 160 µM
IC50 ([3]; 2 mM DOPA, pH 6.5, 0.1% SDS): 1000 µM

COc1ccc(C(=O)O)cc1 [anisic acid]
IC50 (mushroom tyrosinase; read-out: Reported IC50 value): 680 µM

CSC [dimethyl sulfide]
Inhibition of purified MT ([1]; to 500 μM): NI to 500 μM
Inhibition of MT ([4]; up to 500 μM, any of the MT samples): Little to no inhibition
Inhibition of commercial MT ([2]; to 500 μM): NI to 500 μM
Inhibition of crude MT ([3]; to 500 μM): NI to 500 μM

CS(C)(=O)=O [dimethyl sulfone]
Inhibition of purified MT ([1]; to 2 mM): NI to 2 mM
Inhibition of tyrosinase ([4]; up to 2 mM): relatively little inhibition
Inhibition of commercial MT ([2]; to 2 mM): NI to 2 mM
Inhibition of crude MT ([3]; to 2 mM): NI to 2 mM

O=c1ccc2cc(O)c(O)cc2o1 [esculetin]
IC50 ([3]; 2 mM DOPA, pH 6.5, 0.1% SDS): 70 µM

Oc1ccc(O)cc1 [hydroquinone]
Effect on purified MT activity [1]: activates ^f
IC50 (mushroom tyrosinase; read-out: Reported IC50 Values): 26 µM
Effect on commercial MT activity [2]: activates ^e
Concentration up to which crude MT is activated ([3]; 2 mM DOPA): ≤ 100 µM
Effect on crude MT activity ([3]; 2 mM DOPA): activates ^d

O=c1cc(CO)occ1O [kojic acid]
IC50 ([3]; 2 mM DOPA, pH 6.5, 0.1% SDS): 36 µM

Cn1cc[nH]c1=S [methimazole]
IC50 (mushroom tyrosinase; read-out: Reported IC50 Values): 200 µM
IC50 ([3]; 2 mM DOPA, pH 6.5, 0.1% SDS): 46 µM

O=C(CCc1ccc(O)cc1)c1c(O)cc(O)cc1O[C@@H]1O[C@H](CO)[C@@H](O)[C@H](O)[C@H]1O [phloridzin]
IC50 (mushroom tyrosinase; read-out: Reported IC50 Values): 110 µM
IC50 ([3]; 2 mM DOPA, pH 6.5, 0.1% SDS): 625 µM

O=c1cccccc1O [tropolone]
IC50 (mushroom tyrosinase; read-out: Reported IC50 Values): 0.4 µM
IC50 ([3]; 2 mM DOPA, pH 6.5, 0.1% SDS): 0.39 µM

lysozyme
IC50 Purified MT ([1]; 2 mM DOPA, pH 6.5): >20 mg/mL ^i
Reported inhibition of MT (mushroom tyrosinase; MT and lysozyme incubated for one hour before assaying): 30%
Reported IC50 value (mushroom tyrosinase): 4.6 µg/mL
Reported inhibition of MT (mushroom tyrosinase; mixing MT with lysozyme just before assaying): 8%
IC50 (mushroom tyrosinase; read-out: Reported IC50 Values): 0.32 µM
IC50 Commer. MT ([2]; 2 mM DOPA, pH 6.5): >20 mg/mL ^h
IC50 Crude MT ([3]; 2 mM DOPA, pH 6.5, 0.1% SDS): >10 mg/mL ^g
